Test results taken from patent US9593108B2, “Compounds and methods for antiviral treatment” (PTC Therapeutics, Inc., priority 2009, dated 2017).

Test system: HCV replicon RNA (GenBank Accession No. AJ242654)
Assay: HCV Replicon Assay (replicon RNA reduction and/or Fluc reporter signal)
Type: cell-based, Hepatitis C virus
Conditions: Hepatitis C virus, 72 h, replicon-containing cells cultured with test compound for up to 3 days
Source text: The lack of reliable and readily accessible cell-culture and small animal models permissive for HCV replication has limited the development of new anti-HCV agents. Self-replicating subgenomic HCV systems, termed HCV replicons, have been described and have been widely used to assess the efficacy of anti-HCV inhibitors (see Blight K J, et al., 2000, Efficient initiation of HCV RNA replication in cell culture. Science 290:1972-1974; Blight K J, et al., 2002, Highly permissive cell lines for subgenomic and genomic hepatitis C virus RNA replication. J Virol 76:13001-13014; Ikeda M, et al., 2002. Selectable subgenomic and genome-length dicistronic RNAs derived from an infectious molecular clone of the HCV-N strain of hepatitis C virus replicate efficiently in cultured Huh7 cells. J Virol 76:2997-3006; Lohmann V, et al., 1999, Replication of subgenomic hepatitis C virus RNAs in a hepatoma cell line. Science 285:110-113; Pietschmann T, et al., 2002, Persistent and transient replication of full-length hepatitis C virus genomes in cell culture. J Virol 76:4008-4021; and, Pietschmann T, et al., 2001, Characterization of cell lines carrying self-replicating hepatitis C virus RNAs. J Virol 75:1252-1264).
As described in U.S. Pat. No. 6,630,343, HCV inhibitors are analyzed in the bicistronic replicon by quantitating replicon RNA (GenBank Accession No. AJ242654) reduction and/or the Fluc reporter signal. Replicon-containing cells may be cultured with a test compound of the present invention for up to 3 days. Interferon (IFN) is used as a positive control. In general, the replicon IC50 values shown in Table 1 represent IC50 values determined by replicon RNA reduction.

Compound	IC50 [µM]
C[C@H](NS(=O)(=O)c1ccc(-c2c(C#N)c3cc(OC(F)F)cnc3n2C2CCC2)nc1)C1CC1 [Cpd 200, 6-[3-cyano-1-cyclobutyl-5-(difluoromethoxy)-1H-pyrrolo[2,3-b]pyridin-2-yl]-N-[(1S)-1-cyclopropylethyl]pyridine-3-sulfonamide]	0.5 to 2
Cc1ccc2c(n1)c(C#N)c(-c1ccc(S(=O)(=O)N[C@@H](C)C(F)(F)F)cn1)n2C1CCCC1 [Cpd 222, 6-(3-cyano-1-cyclopentyl-5-methyl-1H-pyrrolo[3,2-b]pyridin-2-yl)-N-[(2S)-1,1,1-trifluoropropan-2-yl]pyridine-3-sulfonamide]	< 0.5
N#Cc1c(-c2ccc(S(=O)(=O)NC3CC3)cn2)n(C2CCC2)c2ncc(C(F)(F)F)cc12 [Cpd 245, 6-[3-cyano-1-cyclobutyl-5-(trifluoromethyl)-1H-pyrrolo[2,3-b]pyridin-2-yl]-N-cyclopropylpyridine-3-sulfonamide]	< 0.5
N#Cc1c(-c2ccc(NS(=O)(=O)C3CC3)cc2)n(C2CCC2)c2ncc(C(F)(F)F)cc12 [Cpd 246, N-{4-[3-cyano-1-cyclobutyl-5-(trifluoromethyl)-1H-pyrrolo[2,3-b]pyridin-2-yl]phenyl}cyclopropanesulfonamide]	0.5 to 2
CCc1cnc2c(c1)c(C#N)c(-c1ccc(S(=O)(=O)N[C@H](C)C(F)(F)F)cn1)n2C1CCCC1 [Cpd 251, 6-(3-cyano-1-cyclopentyl-5-ethyl-1H-pyrrolo[2,3-b]pyridin-2-yl)-N-[(2R)-1,1,1-trifluoropropan-2-yl]pyridine-3-sulfonamide]	< 0.5
CCc1cnc2c(c1)c(C#N)c(-c1ccc(S(=O)(=O)N[C@@H](C)C(F)(F)F)cn1)n2C1CCCC1 [Cpd 252, 6-(3-cyano-1-cyclopentyl-5-ethyl-1H-pyrrolo[2,3-b]pyridin-2-yl)-N-[(2S)-1,1,1-trifluoropropan-2-yl]pyridine-3-sulfonamide]	< 0.5
CC1(NS(=O)(=O)c2ccc(-c3c(C#N)c4cc(C5CC5)cnc4n3C3CCCC3)nc2)CC1 [Cpd 253, 6-(3-cyano-1-cyclopentyl-5-cyclopropyl-1H-pyrrolo[2,3-b]pyridin-2-yl)-N-(1-methylcyclopropyl)pyridine-3-sulfonamide]	0.5 to 2
Cc1cnc2c(c1)c(C#N)c(-c1ccc(S(=O)(=O)N[C@@H](C)C(F)(F)F)cn1)n2C1CCCC1 [Cpd 255, 6-(3-cyano-1-cyclopentyl-5-methyl-1H-pyrrolo[2,3-b]pyridin-2-yl)-N-[(2S)-1,1,1-trifluoropropan-2-yl]pyridine-3-sulfonamide]	< 0.5
COc1cnc2c(c1)c(C#N)c(-c1ccc(S(=O)(=O)NC3(C)CC3)cn1)n2C1CCCC1 [Cpd 269, 6-(3-cyano-1-cyclopentyl-5-methoxy-1H-pyrrolo[2,3-b]pyridin-2-yl)-N-(1-methylcyclopropyl)pyridine-3-sulfonamide]	< 0.5
CC1(NS(=O)(=O)c2ccc(-c3c(C#N)c4cc(Cl)cnc4n3C3CCC3)nc2)CC1 [Cpd 280, 6-(5-chloro-3-cyano-1-cyclobutyl-1H-pyrrolo[2,3-b]pyridin-2-yl)-N-(1-methylcyclopropyl)pyridine-3-sulfonamide]	< 0.5
N#Cc1c(-c2ccc(S(=O)(=O)NC3(C(F)(F)F)CC3)cc2)n(C2CCC2)c2ncc(Cl)cc12 [Cpd 281, 4-(5-chloro-3-cyano-1-cyclobutyl-1H-pyrrolo[2,3-b]pyridin-2-yl)-N-[1-(trifluoromethyl)cyclopropyl]benzenesulfonamide]	< 0.5
CC(C)(NS(=O)(=O)c1ccc(-c2c(C#N)c3cc(Cl)cnc3n2C2CCC2)cc1)C(F)(F)F [Cpd 282, 4-(5-chloro-3-cyano-1-cyclobutyl-1H-pyrrolo[2,3-b]pyridin-2-yl)-N-(1,1,1-trifluoro-2-methylpropan-2-yl)benzenesulfonamide]	< 0.5
CC1(NS(=O)(=O)c2ccc(-c3c(C#N)c4cc(Cl)cnc4n3C3CCC3)cc2)CC1 [Cpd 284, 4-(5-chloro-3-cyano-1-cyclobutyl-1H-pyrrolo[2,3-b]pyridin-2-yl)-N-(1-methylcyclopropyl)benzenesulfonamide]	< 0.5
COc1cnc2c(c1)c(C#N)c(-c1ccc(S(=O)(=O)NC3(C(F)(F)F)CC3)cn1)n2C1CCC1 [Cpd 312, 6-(3-cyano-1-cyclobutyl-5-methoxy-1H-pyrrolo[2,3-b]pyridin-2-yl)-N-[1-(trifluoromethyl)cyclopropyl]pyridine-3-sulfonamide]	< 0.5
C[C@H](NS(=O)(=O)c1ccc(-c2cc3cc(C(F)(F)F)cnc3n2-c2ccccc2)nc1)C(F)(F)F [Cpd 314, 6-[1-phenyl-5-(trifluoromethyl)-1H-pyrrolo[2,3-b]pyridin-2-yl]-N-[(2S)-1,1,1-trifluoropropan-2-yl]pyridine-3-sulfonamide]	0.5 to 2
C[C@H](NS(=O)(=O)c1ccc(-c2cc3cc(C(F)(F)F)cnc3n2-c2cnccn2)nc1)C(F)(F)F [Cpd 315, 6-[1-(pyrazin-2-yl)-5-(trifluoromethyl)-1H-pyrrolo[2,3-b]pyridin-2-yl]-N-[(2S)-1,1,1-trifluoropropan-2-yl]pyridine-3-sulfonamide]	< 0.5
C[C@H](NS(=O)(=O)c1ccc(-c2c(C#N)c3cc(F)cnc3n2-c2ccccc2)nc1)C(F)(F)F [Cpd 319, 6-(3-cyano-5-fluoro-1-phenyl-1H-pyrrolo[2,3-b]pyridin-2-yl)-N-[(2S)-1,1,1-trifluoropropan-2-yl]pyridine-3-sulfonamide]	< 0.5
CSc1cnc2c(c1)c(C(=O)O)c(-c1ccc(S(=O)(=O)NC3(C(F)(F)F)CC3)cn1)n2C1CCCC1 [Cpd 330, 1-cyclopentyl-5-(methylsulfanyl)-2-(5-{[1-(trifluoromethyl)cyclopropyl]sulfamoyl}pyridin-2-yl)-1H-pyrrolo[2,3-b]pyridine-3-carboxylic acid]	2 to 5
CC(C)(NS(=O)(=O)c1ccc(-c2c(C(=O)O)c3cc(Cl)cnc3n2C2CCC2)nc1)C(F)(F)F [Cpd 331, 5-chloro-1-cyclobutyl-2-{5-[(1,1,1-trifluoro-2-methylpropan-2-yl)sulfamoyl]pyridin-2-yl}-1H-pyrrolo[2,3-b]pyridine-3-carboxylic acid]	0.5 to 2
Cc1cnc2c(c1)c(C(N)=O)c(-c1ccc(S(=O)(=O)NC3(C(F)(F)F)CC3)cc1)n2C1CCC1 [Cpd 342, 1-cyclobutyl-5-methyl-2-(4-{[1-(trifluoromethyl)cyclopropyl]sulfamoyl}phenyl)-1H-pyrrolo[2,3-b]pyridine-3-carboxamide]	< 0.5
Cc1cnc2c(c1)c(C(N)=O)c(-c1ccc(S(=O)(=O)N[C@@H](C)C(F)(F)F)cc1)n2C1CCC1 [Cpd 343, 1-cyclobutyl-5-methyl-2-(4-{[(2S)-1,1,1-trifluoropropan-2-yl]sulfamoyl}phenyl)-1H-pyrrolo[2,3-b]pyridine-3-carboxamide]	< 0.5
C[C@H](NS(=O)(=O)c1ccc(-c2c(C#N)c3cc(N(C)Cc4ccccc4)cnc3n2C2CCC2)nc1)C(F)(F)F [Cpd 350, 6-{5-[benzyl(methyl)amino]-3-cyano-1-cyclobutyl-1H-pyrrolo[2,3-b]pyridin-2-yl}-N-[(2S)-1,1,1-trifluoropropan-2-yl]pyridine-3-sulfonamide]	< 0.5
CN(Cc1ccccc1)c1cnc2c(c1)c(C#N)c(-c1ccc(NS(=O)(=O)C(C)(C)C)cc1)n2C1CCC1 [Cpd 352, N-(4-{5-[benzyl(methyl)amino]-3-cyano-1-cyclobutyl-1H-pyrrolo[2,3-b]pyridin-2-yl}phenyl)-2-methylpropane-2-sulfonamide]	0.5 to 2
CN(Cc1ccccc1)c1cnc2c(c1)c(C#N)c(-c1ccc(S(=O)(=O)NC(C)(C)C(F)(F)F)cc1)n2C1CCC1 [Cpd 353, 4-{5-[benzyl(methyl)amino]-3-cyano-1-cyclobutyl-1H-pyrrolo[2,3-b]pyridin-2-yl}-N-(1,1,1-trifluoro-2-methylpropan-2-yl)benzenesulfonamide]	2 to 5
Cc1cnc(-n2c(-c3ccc(S(=O)(=O)N[C@@H](C)C(F)(F)F)cn3)c(C#N)c3cc(C(F)(F)F)cnc32)cn1 [Cpd 354, 6-[3-cyano-1-(5-methylpyrazin-2-yl)-5-(trifluoromethyl)-1H-pyrrolo[2,3-b]pyridin-2-yl]-N-[(2S)-1,1,1-trifluoropropan-2-yl]pyridine-3-sulfonamide]	< 0.5
CC(C)(NS(=O)(=O)c1ccc(-c2c(C#N)c3cc(C(F)(F)F)cnc3n2C2CC2)cc1)C(F)(F)F [Cpd 361, 4-[3-cyano-1-cyclopropyl-5-(trifluoromethyl)-1H-pyrrolo[2,3-b]pyridin-2-yl]-N-(1,1,1-trifluoro-2-methylpropan-2-yl)benzenesulfonamide]	2 to 5
CC(C)(C)S(=O)(=O)Nc1ccc(-c2c(C#N)c3cc(C(F)(F)F)cnc3n2C2CC2)cc1 [Cpd 362, N-{4-[3-cyano-1-cyclopropyl-5-(trifluoromethyl)-1H-pyrrolo[2,3-b]pyridin-2-yl]phenyl}-2-methylpropane-2-sulfonamide]	0.5 to 2
